Data on seven compounds can be found in patent publication US6099845A, “Process for the preparation of Rhus verniciflua extract and anti-cancer composition containing same” (Forest Genetics Research Institute, priority 1997, dated 2000).

“Also recorded” adds a separate entry of the source.

A short description of assay [1]: DPPH free radical decolorization (anti-oxidative activity). In kind it is biochemical. Particulars: 0.04% ethanol solution, 30 min, room temperature, 517 nm. The procedure:
DPPH(1,1-diphenyl-2-picrylhydrazyl) is a free radical which is very stable in an organic solution. […] Accordingly, it is advantageously employed in measuring anti-oxidative activity of a material.
DPPH was dissolved in absolute ethanol to a concentration of […]("DPPH ethanol solution"). To this solution, the extract of R. verniciflua obtained in Example 1 and Sesamol (Sigma, U.S.A.), a natural anti-oxidant were added to a concentration of 0.04%, respectively to obtain an "extract ethanol solution" and a "Sesamol ethanol solution".
2 ml of the DPPH ethanol solution was put into each of two 4 me disposable spectrophotometer cuvettes(Muller ratiolab, Germany). Then, 2 ml of the extract ethanol solution was placed in one cuvette and 2 ml of the Sesamol ethanol solution was put into the other cuvette. The mixtures were reacted at room temperature for 30 min. As a control, a cuvette containing 4 ml of the DPPH ethanol solution was used. The absorption of each cuvette was determined at 517 nm with a spectrophotometer(HP 8453 diode array spectrophotometer). The absorption of the extract ethanol solution was calibrated with the absorption of the control, and the capability of the extract ethanol solution to decolorize the purple color of the DPPH ethanol solution was calculated based on the calibrated absorption of the Sesamol ethanol solution.
(The DPPH test is a chemical assay of radical scavenging.)

In another assay the test system is LamB1 gene. In kind it is cell-based, mouse. As to conditions: F9 cells, 7 days; FIG. 8.
Another assay relates to F9 teratocarcinoma cells. As to conditions: cited from earlier work.
In a further assay the test system is angiogenesis. Particulars: cited from earlier work.
The next assay concerns cancer cells. As to conditions: cited from earlier work.
Assay [2] has as its system blood vessel and capillary. As to conditions: cited from earlier work.
In assay [3] the test system is formation of peroxidized lipids. Particulars: cited from earlier work.
For assay [4], the system named is allergy and dermatopathies. Particulars: cited from earlier work.
The next assay concerns cancer. As to conditions: cited from earlier work.

`Oc1ccc2c(c1)OCO2` [Sesamol]: in [1], the “anti-oxidative activity relative to Sesamol's 100” value is listed as 100.

Take `CC1=C(/C=C/C(C)=C/C=C/C(C)=C/C(=O)O)C(C)(C)CCC1` [retinoic acid]: the “expression of LamB1 gene (northern blotting)” value with LamB1 gene is on record as “converts the gene of the cancer cell to express LamBl gene”. For the same compound, the “differentiation of F9 teratocarcinoma cells (in words)” value in the assay with F9 teratocarcinoma cells is reported as “transforms into a primitive developmental form”. Moreover, the “inhibitory activity on angiogenesis (in words)” value (“inhibitory activity” for short) in the assay on angiogenesis is given as “inhibit angiogenesis”. Besides, the “differentiation of cancer cells (in words)” value with cancer cells was “induce the differentiation of cancer cells to normal cells”.

As to `O=c1c(O)c(-c2ccc(O)c(O)c2)oc2cc(O)ccc12` (single isomer, unassigned) [Fisetin, 3,3',4',7-tetrahydroxyflavone], the “protecting blood vessel and capillary” value in [2] is “protecting blood vessel and capillary”. For the same compound, the “suppressing the formation of peroxidized lipids” value in assay [3] is on record as “suppressing the formation of peroxidized lipids”. Moreover, the “inhibiting allergy and dermatopathies” value in assay [4] was “inhibiting allergy and dermatopathies”.

Turning to `C=C1CCC(O)CC1=CC=C1CCCC2(C)C1CCC2C(C)CCCC(C)C` (stereo not shown) [vitamin D3], in the assay with angiogenesis, the “inhibitory activity” value is “inhibit angiogenesis”. The “differentiation of cancer cells (in words)” value in the assay on cancer cells is “induce the differentiation of cancer cells to normal cells”.

`CC1(C)CC[C@]2(C(=O)O)CC[C@]3(C)C(=CC[C@@H]4[C@@]5(C)CC[C@H](O)C(C)(C)[C@@H]5CC[C@]43C)[C@@H]2C1` [oleanolic acid]: in the assay with F9 teratocarcinoma cells, the “differentiation of F9 teratocarcinoma cells (in words)” value is “capable of differentiating F9 teratocarcinoma cells into normal cells; also recorded: induce the differentiation of F9 teratocarcinoma cells by regulating the gene involved in the differentiation”. Besides, the “inhibitory activity” value with angiogenesis was “some inhibitory activity on angiogenesis”. Moreover, the “anti-cancer activity (in words)” value in the assay on cancer is reported as “have anti-cancer activity”.

Consider `O=C1c2ccc(O)cc2OC(c2ccc(O)c(O)c2)C1O` (single isomer, unassigned) [fustin, 3,3',4',7-tetrahydroxyflavanone], for which the “protecting blood vessel and capillary” value in [2] is “protecting blood vessel and capillary”. In addition, the “suppressing the formation of peroxidized lipids” value in assay [3] is reported as “suppressing the formation of peroxidized lipids”. For the same compound, the “inhibiting allergy and dermatopathies” value in assay [4] is “inhibiting allergy and dermatopathies”.

In the case of `CC1CCC2(C(=O)O)CCC3(C)C(=CCC4C5(C)CCC(O)C(C)(C)C5CCC43C)C2C1C` (stereo not shown) [urusolic acid], the “differentiation of F9 teratocarcinoma cells (in words)” value in the assay on F9 teratocarcinoma cells is given as “capable of differentiating F9 teratocarcinoma cells into normal cells; also recorded: induce the differentiation of F9 teratocarcinoma cells by regulating the gene involved in the differentiation”. In the assay with angiogenesis, the “inhibitory activity” value is “some inhibitory activity on angiogenesis”. Also, in the assay with cancer, the “anti-cancer activity (in words)” value was “have anti-cancer activity”.
